Here are results for 28 molecules from US11970497B2, “Tricyclic AKR1C3 dependent KARS inhibitors” (Novartis AG, priority 2019, dated 2024).

The first assay has as its system H460 (NRF2 pathway mutant cell line with high AKR1C3 expression). As to the kind of experiment: In vitro cell proliferation assay (CellTiter-Glo), H460. Particulars: Homo sapiens, NCI-H460, 72 h, read-out: H460 Qualified absolute AC50. The assay is classed as cell-based. The text has this:
Cellular Proliferation Assay to Assess Compounds Activity in H460 (NRF2 Pathway Mutant Cell Line with High AKR1C3 Expression) and Hara (NRF2 Pathway Wild Type Cell Line with Low AKR1C3 Expression).
The cell lines A549 and H460 are NRF2 pathway mutant and specifically contain genetic alterations in KEAP1 (A549: G333C, H460: D236H) (Singh A. et al., 2006 PLoS Medicine 3(10) e420). In these cell lines the NRF2 pathway is constitutively active and these cells express high levels of NRF2 protein and NRF2 pathway target gene AKR1C3. […] They have low AKR1C3 expression.
In Vitro Cell Proliferation Assay
Day 1, for H460 800 cells/well or 40 μL of 2×10^4 cells/mL and for Hara 2000 cells/well or 40 μL of 5×10^4 cells/mL medium (RPMI-1640 supplemented with 10% fetal bovine serum and 1% penicillin/streptomycin) were seeded into 384-well tissue culture plates. Day 2, compounds were serially diluted 1:5 to generate 8 point dose response curves and added to cells for a final top concentration of 10 μM. DMSO (1%) control and MG132 (30 μM) controls are added in columns 23 and 24 respectively on each plate for positive and negative control. After incubation for 3 days at 37° C./5% CO2, 30 μl of CellTiter-Glo reagent (Promega) was added and the plates were incubated for 10 min on plate shaker. The amount of luminescence was determined using a Perkin Elmer Envision plate reader. CellTiter-Glo luminescence values of cells treated with DMSO and MG132 controls were used to normalize the data and calculate percentage activity and AC50s of compounds using the Helios Software suite.
In general terms: In ATP-based viability assays light output follows the ATP content of the culture.
Consider `O=C1CC2(CCN(C(=O)NCc3ccc(OP(=O)(O)O)cc3)CC2)Nc2ccc(F)cc21` [Example 4, 4-((6′-fluoro-4′-oxo-3′,4′-dihydro-1′H-spiro[piperidine-4,2′-quinoline]-1-carboxamido)methyl)phenyl dihydrogen phosphate], for which the AC50 is 6 nM.

Staying with this assay, now noted: Homo sapiens, NCI-H460, 72 h; H460 cells, 3 days, CellTiter-Glo, top concentration 10 μM; read-out: H460 Qualified absolute AC50.
In the case of `Nc1ccc(CNC(=O)N2CCC3(CC2)C[C@H](O)c2cc(F)ccc2N3)cc1F` (single isomer, unassigned) [Example 170b], the concentration at half-maximal activity (AC50) is not below 17300 nM. With `Cc1c(CNC(=O)N2CCC3(CC2)CC(=O)c2cc(F)ccc2N3)ccc(F)c1C(N)=O` [Example 79, N-(3-carbamoyl-4-fluoro-2-methylbenzyl)-6′-fluoro-4′-oxo-3′,4′-dihydro-1′H-spiro[piperidine-4,2′-quinoline]-1-carboxamide], the concentration at half-maximal activity (AC50) is 345 nM. As to `CN1c2ccc(F)cc2C(=O)CC12CCN(C(=O)NCc1ccc(F)c(C(=O)NCC(C)(C)O)c1)CC2` [Example 97, 6′-fluoro-N-(4-fluoro-3-((2-hydroxy-2-methylpropyl)carbamoyl)benzyl)-1′-methyl-4′-oxo-3′,4′-dihydro-1′H-spiro[piperidine-4,2′-quinoline]-1-carboxamide], the AC50 was determined as 491 nM. Turning to `O=C1CC2(CCN(C(=O)NCc3ccc(Cl)o3)CC2)Nc2ccc(F)cc21` [Example 22, N-((5-chlorofuran-2-yl)methyl)-6′-fluoro-4′-oxo-3′,4′-dihydro-1′H-spiro[piperidine-4,2′-quinoline]-1-carboxamide], the AC50 turned out to be 37 nM. Still for that read-out and setting: with `CC(O)CNC(=O)c1cc(CNC(=O)N2CCC3(CC2)CC(=O)c2cc(F)ccc2N3C)ccc1F` (racemic) [Example 88, 6′-fluoro-N-(4-fluoro-3-((2-hydroxypropyl)carbamoyl)benzyl)-1′-methyl-4′-oxo-3′,4′-dihydro-1′H-spiro[piperidine-4,2′-quinoline]-1-carboxamide] the figure was 421 nM; with `CN1c2ccc(F)cc2C(=O)CC12CCN(C(=O)NCc1ccc(F)c(NCC3COCCO3)c1)CC2` (stereo not shown) [Example 31, N-(3-(((1,4-dioxan-2-yl)methyl)amino)-4-fluorobenzyl)-6′-fluoro-1′-methyl-4′-oxo-3′,4′-dihydro-1′H-spiro[piperidine-4,2′-quinoline]-1-carboxamide], 64 nM; with `CN1c2ccc(F)cc2C(=O)CC12CCN(C(=O)NCc1ccc(F)c(NCC(C)(C)C(=O)N3CCOCC3)c1)CC2` [Example 113], 846 nM.

Turning to `Cc1occc1CNC(=O)N1CCC2(CC1)CC(=O)c1cc(F)ccc1N2` [Example 59, 6′-fluoro-N-((2-methylfuran-3-yl)methyl)-4′-oxo-3′,4′-dihydro-1′H-spiro[piperidine-4,2′-quinoline]-1-carboxamide], the AC50 turned out to be 185 nM. Turning to `Cc1ncc(CNC(=O)c2cc(CNC(=O)N3CCC4(CC3)CC(=O)c3cc(F)ccc3N4)ccc2F)o1` [Example 121, 6′-fluoro-N-(4-fluoro-3-(((2-methyloxazol-5-yl)methyl)carbamoyl)benzyl)-4′-oxo-3′,4′-dihydro-1′H-spiro[piperidine-4,2′-quinoline]-1-carboxamide], the AC50 came out at 1080 nM.

In the case of `C#CCNC(=O)c1cc(CNC(=O)N2CCC3(CC2)CC(=O)c2cc(F)ccc2N3)ccc1F` [Example 128, 6′-fluoro-N-(4-fluoro-3-(prop-2-yn-1-ylcarbamoyl)benzyl)-4′-oxo-3′,4′-dihydro-1′H-spiro[piperidine-4,2′-quinoline]-1-carboxamide], the AC50 was found to be 1480 nM.

Turning to `Cc1coc(C)c1CNC(=O)N1CCC2(CC1)CC(=O)c1cc(F)ccc1N2` [Example 34, N-((2,4-dimethylfuran-3-yl)methyl)-6′-fluoro-4′-oxo-3′,4′-dihydro-1′H-spiro[piperidine-4,2′-quinoline]-1-carboxamide], the AC50 is 75 nM. Still for that read-out and setting: with `Cc1ccc(CNC(=O)N2CCC3(CC2)CC(=O)c2cc(F)ccc2N3C)o1` [Example 7, 6′-fluoro-1′-methyl-N-((5-methylfuran-2-yl)methyl)-4′-oxo-3′,4′-dihydro-1′H-spiro[piperidine-4,2′-quinoline]-1-carboxamide] the figure was 10 nM; with `CN1c2ccc(F)cc2C(=O)CC12CCN(C(=O)NCc1ccc(F)c(NCCC(=O)O)c1)CC2` [Example 148, 3-((2-fluoro-5-((6′-fluoro-1′-methyl-4′-oxo-3′,4′-dihydro-1′H-spiro[piperidine-4,2′-quinoline]-1-carboxamido)methyl)phenyl)amino)propanoic acid], 4930 nM.

As to `CN1c2ccc(F)cc2C(=O)CC12CCN(C(=O)NCc1ccc(F)c(NCCN3CCCC3=O)c1)CC2` [Example 90, 6′-fluoro-N-(4-fluoro-3-((2-(2-oxopyrrolidin-1-yl)ethyl)amino)benzyl)-1′-methyl-4′-oxo-3′,4′-dihydro-1′H-spiro[piperidine-4,2′-quinoline]-1-carboxamide], the AC50 was found to be 443 nM.

`Cc1cc(CNC(=O)N2CCC3(CC2)CC(=O)c2cc(F)ccc2N3)c(C)o1` [Example 110, N-((2,5-dimethylfuran-3-yl)methyl)-6′-fluoro-4′-oxo-3′,4′-dihydro-1′H-spiro[piperidine-4,2′-quinoline]-1-carboxamide]: the AC50 came out at 700 nM. `Cc1cc(CNC(=O)N2CCC3(CC2)CC(=O)c2cc(F)ccc2N3)n[nH]1` [Example 72, 6′-fluoro-N-((5-methyl-1H-pyrazol-3-yl)methyl)-4′-oxo-3′,4′-dihydro-1′H-spiro[piperidine-4,2′-quinoline]-1-carboxamide]: the concentration at half-maximal activity (AC50) stood at 282 nM.

Turning to `O=C(NCC(=O)C1CC1)c1cc(CNC(=O)N2CCC3(CC2)CC(=O)c2cc(F)ccc2N3)ccc1F` [Example 100, N-(3-((2-cyclopropyl-2-oxoethyl)carbamoyl)-4-fluorobenzyl)-6′-fluoro-4′-oxo-3′,4′-dihydro-1′H-spiro[piperidine-4,2′-quinoline]-1-carboxamide], the AC50 is 518 nM. Take `O=C(NC1CC(O)C1)c1cc(CNC(=O)N2CCC3(CC2)CC(=O)c2cc(F)ccc2N3)ccc1F` (stereo not shown) [Example 60, 6′-fluoro-N-(4-fluoro-3-((3-hydroxycyclobutyl)carbamoyl)benzyl)-4′-oxo-3′,4′-dihydro-1′H-spiro[piperidine-4,2′-quinoline]-1-carboxamide]: the AC50 is 198 nM.

Turning to `CCc1noc(C)c1CNC(=O)N1CCC2(CC1)CC(=O)c1cc(F)ccc1N2` [Example 106, N-((3-ethyl-5-methylisoxazol-4-yl)methyl)-6′-fluoro-4′-oxo-3′,4′-dihydro-1′H-spiro[piperidine-4,2′-quinoline]-1-carboxamide], the concentration at half-maximal activity (AC50) turned out to be 598 nM. With `CN1CCN(C(=O)C(C)(C)CNc2cc(CNC(=O)N3CCC4(CC3)CC(=O)c3cc(F)ccc3N4C)ccc2F)CC1` [Example 44, N-(3-((2,2-dimethyl-3-(4-methylpiperazin-1-yl)-3-oxopropyl)amino)-4-fluorobenzyl)-6′-fluoro-1′-methyl-4′-oxo-3′,4′-dihydro-1′H-spiro[piperidine-4,2′-quinoline]-1-carboxamide], the AC50 was 99 nM. On to `Cc1ccc(CNC(=O)N2CCC3(CC2)CC(=O)c2cc(F)ccc2N3)o1` [Example 1, 6′-fluoro-N-((5-methylfuran-2-yl)methyl)-4′-oxo-3′,4′-dihydro-1′H-spiro[piperidine-4,2′-quinoline]-1-carboxamide], for which the AC50 came out at 143 nM. For the molecule `O=C1CC2(CCN(C(=O)NCc3cn[nH]c3)CC2)Nc2ccc(F)cc21` [Example 37, N-((1H-pyrazol-4-yl)methyl)-6′-fluoro-4′-oxo-3′,4′-dihydro-1′H-spiro[piperidine-4,2′-quinoline]-1-carboxamide], the AC50 was 81 nM.

Turning to `COCCNC(=O)c1cc(CNC(=O)N2CCC3(CC2)CC(=O)c2cc(F)ccc2N3C)ccc1F` [Example 58, 6′-fluoro-N-(4-fluoro-3-((2-methoxyethyl)carbamoyl)benzyl)-1′-methyl-4′-oxo-3′,4′-dihydro-1′H-spiro[piperidine-4,2′-quinoline]-1-carboxamide], the AC50 worked out at 181 nM. `O=C1CC2(CCN(C(=O)NCc3ccoc3C(F)(F)F)CC2)Nc2ccc(F)cc21` [Example 96, 6′-fluoro-4′-oxo-N-((2-(trifluoromethyl)furan-3-yl)methyl)-3′,4′-dihydro-1′H-spiro[piperidine-4,2′-quinoline]-1-carboxamide]: the AC50 worked out at 489 nM.

On to `Nc1ccc(CNC(=O)N2CCC3(CC2)C[C@@H](O)c2cc(F)ccc2N3)cc1F` (single isomer, unassigned) [Example 170a], for which the AC50 was 11 nM. On to `CN(C)CCNC(=O)c1cc(CNC(=O)N2CCC3(CC2)CC(=O)c2cc(F)ccc2N3)ccc1F` [Example 81, N-(3-((2-(dimethylamino)ethyl)carbamoyl)-4-fluorobenzyl)-6′-fluoro-4′-oxo-3′,4′-dihydro-1′H-spiro[piperidine-4,2′-quinoline]-1-carboxamide], for which the AC50 amounted to 352 nM. Take `Cc1occc1CNC(=O)N1CCC2(CC1)C[C@@H](O)c1cc(F)ccc1N2` (single isomer, unassigned) [Example 169]: the AC50 came to 8 nM.

One may read the AC50 as the concentration giving half of the maximal activity seen.
